Laboratory results published in patent US11007248B2, “Suppression of allergic lung inflammation and hyperreactivity” (The Regents of the University of California, priority 2013, dated 2021).
Where no end group is shown, it is not given here. The star is where a group is joined. Myristoyl = CCCCCCCCCCCCCC(=O)*

Legend:
[1] = system: antigen-presenting cells, dendritic cells (DCs); experiment: Homing of antigen-presenting dendritic cells to mediastinal lymph nodes, flow cytometry, Ova-induced allergic mouse asthma; assay type: in vivo; conditions: allergic animal model; OVA-DQ challenge day 15-18; CD11c+ cells in mediastinal lymph nodes
Description: For detection of antigen specific DCs migration, mice were challenged with 150 μg OVA-DQ (Life Technologies, Grand Island, N.Y.) for one time per day at day 15-18. Cells were isolated from the mediastinal lymph nodes and lungs. Cells were stained with CD11c conjugated PEC-Cy7 (BD Bioscience, San Jose, Calif.) and analyzed by flow cytometry. Peptides used in this study were (wild type) MPS, A-MPS (mutant 2 in the figure) and D-MPS (mutant 1 in the FIG. 8).

[2] = system: OVA-allergic mouse airways; experiment: Lung section histology (H&E, PAS), murine OVA-allergic model; assay type: in vivo; conditions: for allergic inflammation associated with allergen/ovalbumin-induced allergic airway disease: mouse
Description: (§1) FIG. 2A: Murine OVA-allergic model.
FIGS. 4A-4B show MPS suppressed mucous cell metaplasia (stained by periodic acid stain (PAS)) and inflammatory cells in OVA-allergic mouse airways. Experiments were carried out as described in FIG. 2A. At day 19, animals were sacrificed and lung tissues were fixed for paraffin sections. FIG. 4A: Lung sections were stained by H&E, and PAS staining. Original magnification ×200. FIG. 4B: Quantification of the numbers of H&E-stained cells and PAS-stained cells, and the score of the Masson trichrome staining are presented in bar graphs. Data are expressed as mean±SEM values (n=6).

phospho-STAT6 = experiment: IL-13-induced signaling in primary NHBE cells, western blot: phospho-STAT6; assay type: cell-based, human; conditions: air-liquid interface, peptide 50 μM for 4 hrs, then IL-13 20 ng/ml for one hour
phospho-MARCKS = experiment: IL-13-induced signaling in primary NHBE cells, western blot: phospho-MARCKS; assay type: cell-based, human; conditions: air-liquid interface, peptide 50 μM for 4 hrs, then IL-13 20 ng/ml for one hour
[3] = system: OVA-allergic mouse airways; experiment: Airway resistance by invasive body plethysmography, murine OVA-allergic model; assay type: in vivo; conditions: peptide i.p. before OVA i.n. challenge
Description: as §1
Experiments were carried out as described in FIG. 2A. At day 19, animals were collected for airway resistance as measured by invasive body plethysmography. Data are expressed as the mean±SEM values (n=3). # p<0.05, PBS+OVA compared with the PBS control. *p<0.05, MPS +OVA compared with the PBS+OVA group.

OVA-specific IgE = conditions: OVA-allergic mouse; MPS 154 μg/mouse/day i.p.; ELISA
p-Ser-159/163 MARCKS = conditions: MPS 154 μg/mouse/day i.p. day 10-14 prior to OVA i.n. exposure; IHC of lung tissue sections
[4] = system: inflammatory cell types in OVA-allergic mouse airways
[5] = system: BALF inflammatory cytokines (IL-4, IL-5, IL-13, eotaxin; IFN-γ); conditions: OVA-allergic mouse airways; MPS 154 μg/mouse/day i.p.; ELISA
mucus secretion = conditions: previously reported, U.S. Patent Application Publication No. 2009/00220581; cited from earlier work
[6] = day 19, MPS+OVA vs PBS+OVA p<0.05
[7] = OVA-allergic mouse airways, MPS 154 μg/mouse/day i.p., day 19

In the case of KKKKKRFAFKKAFKLAGFAFKKNKK [A-MPS], the “lymph node homing of antigen presenting cells” value (from here on “lymph node homing”) [1] was “inhibited”, the “allergic inflammation associated with allergen/ovalbumin-induced allergic airway disease” value [2] was “able to suppress” and the “suppression of IL-13-induced phospho-STAT6 elevation” value (phospho-STAT6) was “very effective in the suppression”. The “suppression of IL-13-induced phospho-MARCKS elevation” value (phospho-MARCKS) was “very effective in the suppression” and the “airway hyper-reactivity (airway resistance)” value (from here on “airway hyper-reactivity”) [3, 6] was “able to suppress”.

With KKKKKRFDFKKDFKLDGFDFKKNKK [D-MPS] the “lymph node homing” value [1] was “no suppressive effects”, the “allergic inflammation associated with allergen/ovalbumin-induced allergic airway disease” value [2] was “not seen” and the “suppression of IL-13-induced phospho-STAT6 elevation” value (phospho-STAT6) was “not”. The “suppression of IL-13-induced phospho-MARCKS elevation” value (phospho-MARCKS) was “not” and the “airway hyper-reactivity” value [3, 6] was “not seen”.

In the case of KKKKKRFSFKKSFKLSGFSFKKNKK [MPS], the “lymph node homing” value [1] was “inhibited”, the “inflammatory cells in lung tissue (H&E)” value [2, 7] was “suppressed” and the “mucous cell metaplasia (PAS stain)” value [2, 7] was “suppressed”. For the same substance, the “allergic inflammation associated with allergen/ovalbumin-induced allergic airway disease” value [2] was “able to suppress”, the “serum OVA-specific IgE” value (OVA-specific IgE) was “suppressed” and the “suppression of IL-13-induced phospho-STAT6 elevation” value (phospho-STAT6) was “very effective in the suppression”. For the same substance, the “MARCKS phosphorylation in OVA sensitizing mice” value (p-Ser-159/163 MARCKS) was “effectively suppress”, the “eosinophils (inflammatory response)” value ([4]; BALF differential cell counts) was “reduction” and the “presence of various inflammatory cell types in BALF” value ([4]; MPS 154 μg/mouse/day i.p., day 19) was “suppressed”. For the same substance, the “suppression of IL-13-induced phospho-MARCKS elevation” value (phospho-MARCKS) was “very effective in the suppression”, the “Th1 cytokine (IFN-γ) in BALF” value [5] was “not” and the “Th2 cytokines (IL-4, IL-5, IL-13, eotaxin) in BALF” value [5] was “suppressed specifically”. For the same substance, the “airway hyper-reactivity” value [3, 6] was “suppressed” and the “airway hyper-reactivity” value ([3]; day 19, MPS+OVA vs PBS+OVA p<0.05, listed as (wild-type) MPS) was “able to suppress”.

For “myristic acid—KKKKKRFSFKKSFKLSGFSFKKNKK (Myristoyl-KKKKKRFSFKKSFKLSGFSFKKNKK) [myristic acid-wild type MPS disclosed in U.S. 2009/00220581]”, the mucus secretion (mucus secretion) is given as “increased”.
